Assay results as given in US10954252B1, “Inhibitors of human immunodeficiency virus replication” (ViiV HEALTHCARE UK (NO.5) LIMITED, priority 2017, dated 2021).

Legend:
[1] = test system: recombinant NL4-3 virus (nef section replaced with Renilla luciferase gene) in MT-2 cells; assay: HIV cell culture assay (antiviral activity, luciferase readout); type: cell-based; settings: MT-2 cells infected for 4-5 days with recombinant NL4-3 luciferase virus
Method in brief: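 Serially diluted compounds were present throughout a 4-5 day infection of MT-2 cells by recombinant NL4-3 whose nef region partly encodes Renilla luciferase. Antiviral activity was taken from live-cell luciferase signal, with the 50% effective concentration fitted by the exponential median effect equation.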

[2] = Compound cytotoxicity, XTT-based colorimetric assay; type: cell-based; settings: human, uninfected MT2 cells
Method in brief: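 XTT colorimetric read-out on day 4 gave CC50 values, using MT2 cells left uninfected but otherwise handled as in the antiviral assay.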

SMILES	CC50 at 4 days ([2]; Table 1, day 4, XTT)	EC50 ([1]; Renilla, NL43, Table 1)	CC50 at 4 days ([2]; Table 1a, day 4, XTT)	EC50 ([1]; Renilla, NL43, Table 1a)	further results
Cn1nc(NS(C)(=O)=O)c2c(Cl)ccc(-c3cc4[nH]ccc4nc3C(Cc3cc(F)cc(F)c3)NC(=O)Cn3nc(C(F)F)c4c3C(F)(F)[C@@H]3C[C@H]43)c21 (single isomer, unassigned) [Example 5.1]	> 10000 nM				EC50 ([1]; Table 1): 220 nM
Cn1nc(NS(C)(=O)=O)c2c(Cl)ccc(-n3c(C(Cc4cc(F)cc(F)c4)NC(=O)Cn4nc(C(F)F)c5c4C(F)(F)C4CC54)nc4nc(Cl)ccc4c3=O)c21 (stereo in doubt) [Example 12.1, N—((S)-1-(7-chloro-3-(4-chloro-1-methyl-3-(methylsulfonamido)-1H-indazol-7-yl)-4-oxo-3,4-dihydropyrido[2,3-d]pyrimidin-2-yl)-2-(3,5-difluorophenyl)ethyl)-2-((3bS,4aR)-3-(difluoromethyl)-5,5-difluoro-3b,4,4a,5-tetrahydro-1H-cyclopropa[3,4]cyclopenta[1,2-c]pyrazol-1-yl)acetamide]	> 10000 nM	4310 nM			
CC(C)c1ccc(-n2c([C@H](Cc3cc(F)cc(F)c3)NC(=O)Cn3nc(C(F)F)c4c3C(F)(F)[C@@H]3C[C@H]43)nc3ccccc3c2=O)cn1 [Example 10.34]	7900 nM	15 nM			
Cn1nc(NS(C)(=O)=O)c2c(Cl)ccc(-n3c([C@H](Cc4cc(F)cc(F)c4)NC(=O)Cn4nc(C(F)F)c5c4C(F)(F)[C@@H]4C[C@H]54)nc4cc(Cl)cc(Cl)c4c3=O)c21 (single isomer, unassigned) [Example 179]			> 1000 nM		EC50 ([1]; Table 1a): 0.077 nM
Cn1nc(NS(C)(=O)=O)c2c(Cl)ccc(-n3c([C@H](Cc4cc(F)cc(F)c4)NC(=O)Cn4ccc(C(F)(F)F)n4)nc4ccc(OC(F)(F)F)cc4c3=O)c21 (single isomer, unassigned) [Example 143]			> 1000 nM		EC50 ([1]; Table 1a): 84 nM
CS(=O)(=O)Nc1nn(CC(F)F)c2c(-c3nc4ccccc4nc3[C@H](Cc3cc(F)cc(F)c3)NC(=O)Cn3nc(C(F)F)c4c3C(F)(F)[C@@H]3C[C@H]43)ccc(Cl)c12 [Example 96, N—((S)-1-(3-(4-chloro-1-(2,2-difluoroethyl)-3-(methylsulfonamido)-1H-indazol-7-yl)quinoxalin-2-yl)-2-(3,5-difluorophenyl)ethyl)-2-((3bS,4aR)-3-(difluoromethyl)-5,5-difluoro-3b,4,4a,5-tetrahydro-1H-cyclopropa[3,4]cyclopenta[1,2-c]pyrazol-1-yl)acetamide]			> 1000 nM	0.26 nM	
COc1ccc2c(=O)n(-c3ccc(Cl)c4c(NS(C)(=O)=O)nn(CC(F)F)c34)c([C@H](Cc3cc(F)cc(F)c3)NC(=O)Cn3nc(C(F)F)c4c3C(F)(F)[C@@H]3C[C@H]43)nc2n1 (mixture of isomers) [Example 54.2, N-[(1S)-1-{3-[4-chloro-1-(2,2-difluoroethyl)-3-methanesulfonamido-1H-indazol-7-yl]-7-methoxy-4-oxo-3H,4H-pyrido[2,3-d]pyrimidin-2-yl}-2-(3,5-difluorophenyl)ethyl]-2-[(2S,4R)-9-(difluoromethyl)-5,5-difluoro-7,8-diazatricyclo[4.3.0.0^2,4]nona-1(6),8-dien-7-yl]acetamide]			> 1000 nM	0.026 nM	
Cn1nc(NS(C)(=O)=O)c2c(Cl)ccc(-n3c([C@H](Cc4cc(F)cc(F)c4)NC(=O)Cn4ccc(N)n4)nc4ncccc4c3=O)c21 (single isomer, unassigned) [Example 50.2]			> 1000 nM	32.1 nM	
Cn1nc(NS(C)(=O)=O)c2c(Cl)ccc(-n3c([C@H](Cc4cc(F)cc(F)c4)NC(=O)Cn4ccc(C5CC5)n4)nc4ncccc4c3=O)c21 [Example 15, (S)—N-(1-(3-(4-chloro-1-methyl-3-(methylsulfonamido)-1H-indazol-7-yl)-4-oxo-3,4-dihydropyrido[2,3-d]pyrimidin-2-yl)-2-(3,5-difluorophenyl)ethyl)-2-(3-cyclopropyl-1H-pyrazol-1-yl)acetamide]	> 1000 nM	320 nM			
O=C(Cn1nc(C(F)F)c2c1C(F)(F)[C@@H]1C[C@H]21)N[C@@H](Cc1cc(F)cc(F)c1)c1nc2ccccc2nc1-c1ccc(S(=O)(=O)N2CCOCC2)cc1 [Example 156, 2-((3bS,4aR)-3-(difluoromethyl)-5,5-difluoro-3b,4,4a,5-tetrahydro-1H-cyclopropa[3,4]cyclopenta[1,2-c]pyrazol-1-yl)-N—((S)-2-(3,5-difluorophenyl)-1-(3-(4-(morpholinosulfonyl)phenyl)quinoxalin-2-yl)ethyl)acetamide]			> 10000 nM	16.4 nM	
Cn1nc(NS(C)(=O)=O)c2c(Cl)ccc(-n3c([C@H](Cc4cc(F)cc(F)c4)NC(=O)Cn4nc(C(F)F)c5c4C(F)(F)[C@@H]4C[C@H]54)nc4cc(F)ccc4c3=O)c21 [Example 18, N—((S)-1-(3-(4-chloro-1-methyl-3-(methylsulfonamido)-1H-indazol-7-yl)-7-fluoro-4-oxo-3,4-dihydroquinazolin-2-yl)-2-(3,5-difluorophenyl)ethyl)-2-((3bS,4aR)-3-(difluoromethyl)-5,5-difluoro-3b,4,4a,5-tetrahydro-1H-cyclopropa[3,4]cyclopenta[1,2-c]pyrazol-1-yl)acetamide]	> 10000 nM	36 nM			
Cn1nc(NS(C)(=O)=O)c2c(Cl)ccc(-n3c([C@H](Cc4cc(F)cc(F)c4)NC(=O)Cn4nc(C(F)F)c5c4C(F)(F)[C@@H]4C[C@H]54)nc4cc(F)cc(F)c4c3=O)c21 (single isomer, unassigned) [Example 130]			> 1000 nM	0.15 nM	
Cc1ccc2c(=O)n(-c3ccc(Cl)c4c(NS(C)(=O)=O)nn(C)c34)c(C(Cc3cc(F)cc(F)c3)NC(=O)Cn3nc(C(F)F)c4c3C(F)(F)[C@@H]3C[C@H]43)nc2n1 (mixture of isomers) [Example 41.1]			> 10000 nM	21.2 nM	
COc1ccc2c(=O)n(-c3ccc(Cl)c4c(NS(C)(=O)=O)nn(C)c34)c(C(Cc3cc(F)cc(F)c3)NC(=O)Cn3nc(C(F)F)c4c3C(F)(F)[C@@H]3C[C@H]43)nc2c1F (stereo partly drawn) [Example 75]			> 1000 nM	109 nM	
O=C(Cn1nc(C(F)F)c2c1C(F)(F)[C@@H]1C[C@H]21)N[C@@H](Cc1cc(F)cc(F)c1)c1nc2cn[nH]c2cc1-c1ccc2ccnn2c1 [Example 10.36, 2-((3bS,4aR)-3-(difluoromethyl)-5,5-difluoro-3b,4,4a,5-tetrahydro-1H-cyclopropa[3,4]cyclopenta[1,2-c]pyrazol-1-yl)-N—((S)-2-(3,5-difluorophenyl)-1-(6-(pyrazolo[1,5-a]pyridin-6-yl)-1H-pyrazolo[4,3-b]pyridin-5-yl)ethyl)acetamide]	> 10000 nM	80 nM			
COc1ccc2c(=O)n(-c3ccc(Cl)c4c(NS(C)(=O)=O)nn(C)c34)c([C@H](Cc3cc(F)cc(F)c3)NC(=O)Cn3nc(C(F)F)c4c3C(F)(F)[C@@H]3C[C@H]43)nc2c1F (single isomer, unassigned) [Example 76]			> 1000 nM	0.118 nM	
O=C(Cn1nc(C(F)F)c2c1C(F)(F)[C@@H]1C[C@H]21)N[C@@H](Cc1cc(F)cc(F)c1)c1nc2cn[nH]c2cc1-c1ccc(Cl)c(C(=O)NS(=O)(=O)C2CC2)c1 [Example 10.16, 2-Chloro-N-(cyclopropylsulfonyl)-5-(5-((S)-1-(2-((3bS,4aR)-3-(difluoromethyl)-5,5-difluoro-3b,4,4a,5-tetrahydro-1H-cyclopropa[3,4]cyclopenta[1,2-c]pyrazol-1-yl)acetamido)-2-(3,5-difluorophenyl)ethyl)-1H-pyrazolo[4,3-b]pyridin-6-yl)benzamide]	> 10000 nM	340 nM			
O=C(Cn1nc(C(F)F)c2c1C(F)(F)[C@@H]1C[C@H]21)N[C@@H](Cc1cc(F)cc(F)c1)c1nc2cn[nH]c2cc1-c1cccc(C(=O)O)c1 [Example 10.10, 3-(5-((S)-1-(2-((3bS,4aR)-3-(difluoromethyl)-5,5-difluoro-3b,4,4a,5-tetrahydro-1H-cyclopropa[3,4]cyclopenta[1,2-c]pyrazol-1-yl)acetamido)-2-(3,5-difluorophenyl)ethyl)-1H-pyrazolo[4,3-b]pyridin-6-yl)benzoic acid]	> 10000 nM	140 nM			
O=C(Cn1nc(C(F)F)c2c1C(F)(F)[C@@H]1C[C@H]21)N[C@@H](Cc1cc(F)cc(F)c1)c1nc2cn[nH]c2cc1-c1ccc(S(=O)(=O)N2CCSCC2)cc1 [Example 27, 2-((3bS,4aR)-3-(difluoromethyl)-5,5-difluoro-3b,4,4a,5-tetrahydro-1H-cyclopropa[3,4]cyclopenta[1,2-c]pyrazol-1-yl)-N—((S)-2-(3,5-difluorophenyl)-1-(6-(4-(thiomorpholinosulfonyl)phenyl)-1H-pyrazolo[4,3-b]pyridin-5-yl)ethyl)acetamide]			5010 nM	4.94 nM	
O=C(Cc1c[nH]c2ccc(O)cc12)N[C@@H](Cc1cc(F)cc(F)c1)c1nc2ccccc2c(=O)n1-c1ccc(S(=O)(=O)N2CCOCC2)cc1 [Example 164, (S)—N-(2-(3,5-difluorophenyl)-1-(3-(4-(morpholinosulfonyl)phenyl)-4-oxo-3,4-dihydroquinazolin-2-yl)ethyl)-2-(5-hydroxy-1H-indol-3-yl)acetamideacetamide]			> 10000 nM	1.17 nM	
NS(=O)(=O)c1ccc(-c2cc3[nH]ncc3nc2[C@H](Cc2cc(F)cc(F)c2)NC(=O)Cn2nc(C(F)F)c3c2C(F)(F)[C@@H]2C[C@H]32)cc1 [Example 24, 2-((3bS,4aR)-3-(difluoromethyl)-5,5-difluoro-3b,4,4a,5-tetrahydro-1H-cyclopropa[3,4]cyclopenta[1,2-c]pyrazol-1-yl)-N—((S)-2-(3,5-difluorophenyl)-1-(6-(4-sulfamoylphenyl)-1H-pyrazolo[4,3-b]pyridin-5-yl)ethyl)acetamide]			> 10000 nM	1370 nM	
